The source made the active and inactive calls. The calls are words filed in the database; no cut-off is given here.
Columns and labels:
[1] = Antioxidant activity assessed as inhibition of AAPH-induced peroxyl radical generation measured as trolox equivalent preincubated for 15 mins followed by AAPH addition measured every min for 120 mins by ORAC-FL assay; assay type: functional
[2] = biological target: Cholinesterase (Equus caballus, UniProt P81908); experiment: Inhibition of equine serum BChE using S-butyrylthiocholine iodide as substrate preincubated for 5 mins followed by substrate addition measured up to 180 secs by spectrophotometric analysis
[3] = biological target: Cholinesterase (Homo sapiens, UniProt P06276); experiment: Inhibition of human serum BChE using S-butyrylthiocholine iodide as substrate preincubated for 5 mins followed by substrate addition measured up to 180 secs by spectrophotometric analysis
[4] = biological target: Amyloid-beta precursor protein (Homo sapiens) (UniProt P05067); experiment: Inhibition of HFIP pretreated amyloid beta (1 to 42) (unknown origin) self-aggregation at 20 uM after 48 hrs by thioflavin T fluorescence assay relative to control
[5] = Selectivity index, ratio of IC50 for equine serum BChE to IC50 for electric eel AChE
[6] = biological target: Acetylcholinesterase (Homo sapiens, UniProt P22303); experiment: Inhibition of human erythrocytic AChE using acetylthiocholine iodide as substrate preincubated for 5 mins followed by substrate addition measured up to 180 secs by spectrophotometric analysis
[7] = biological target: Acetylcholinesterase (Electrophorus electricus, UniProt O42275); experiment: Inhibition of electric eel AChE using acetylthiocholine iodide as substrate preincubated for 5 mins followed by substrate addition measured up to 180 secs by spectrophotometric analysis
[8] = tested on: PC-12; experiment: Cytotoxicity against rat PC12 cells at 1.25 to 50 uM after 24 hrs by MTT assay; assay type: cell-based; conditions: pc-12, 24 h
[9] = Effective permeability of compound at 50 ug/mL after 16 hrs by PAMPA-BBB assay
[10] = tested on: PC-12; experiment: Neuroprotective activity against H2O2-induced oxidative damage in rat PC12 cells assessed as increase in cell viability at 1.25 to 25 uM preincubated for 2 hrs followed by H2O2 challenge measured after 24 hrs by MTT assay; assay type: functional, cell-based
[11] = biological target: Acetylcholinesterase (Electrophorus electricus) (UniProt O42275); experiment: Inhibition of electric eel AChE at 0.001 to 100 uM using acetylthiocholine iodide as substrate preincubated for 5 mins followed by substrate addition measured up to 180 secs by spectrophotometric analysis relative to control
[12] = biological target: Cholinesterase (Equus caballus) (UniProt P81908); experiment: Inhibition of equine serum BChE at 0.001 to 100 uM using S-butyrylthiocholine iodide as substrate preincubated for 5 mins followed by substrate addition measured up to 180 secs by spectrophotometric analysis relative to control
[13] = Inhibition of Cu2+-mediated aggregation of amyloid beta (1 to 42) (unknown origin) at 50 uM after 24 hrs by thioflavin T fluorescence assay relative to control
[14] = tested on: PC-12; experiment: Neuroprotective activity against H2O2-induced oxidative damage in rat PC12 cells assessed as increase in cell viability at 25 uM preincubated for 2 hrs followed by H2O2 challenge measured after 24 hrs by MTT assay; assay type: functional, cell-based

Sequence of Acetylcholinesterase (Electrophorus electricus, UniProt O42275) (O42275 whole entry): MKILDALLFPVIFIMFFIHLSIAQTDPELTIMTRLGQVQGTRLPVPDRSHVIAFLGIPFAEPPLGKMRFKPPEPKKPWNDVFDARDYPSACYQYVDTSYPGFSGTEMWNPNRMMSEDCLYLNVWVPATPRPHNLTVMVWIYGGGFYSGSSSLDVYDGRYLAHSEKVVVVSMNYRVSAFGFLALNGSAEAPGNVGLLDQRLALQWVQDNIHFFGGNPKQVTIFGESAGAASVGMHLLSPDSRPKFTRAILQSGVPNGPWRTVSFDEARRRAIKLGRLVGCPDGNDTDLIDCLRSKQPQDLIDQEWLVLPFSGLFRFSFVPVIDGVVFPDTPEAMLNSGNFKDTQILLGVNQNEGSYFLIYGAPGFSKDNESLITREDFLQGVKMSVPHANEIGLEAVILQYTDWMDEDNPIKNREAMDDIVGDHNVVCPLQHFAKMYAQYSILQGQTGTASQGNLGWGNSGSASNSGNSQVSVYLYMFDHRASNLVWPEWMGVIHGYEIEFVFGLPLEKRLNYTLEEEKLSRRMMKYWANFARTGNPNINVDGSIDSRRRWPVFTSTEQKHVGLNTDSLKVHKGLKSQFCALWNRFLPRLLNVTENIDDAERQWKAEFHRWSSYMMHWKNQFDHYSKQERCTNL
Sequence of Cholinesterase (Equus caballus, UniProt P81908) (P81908 whole entry): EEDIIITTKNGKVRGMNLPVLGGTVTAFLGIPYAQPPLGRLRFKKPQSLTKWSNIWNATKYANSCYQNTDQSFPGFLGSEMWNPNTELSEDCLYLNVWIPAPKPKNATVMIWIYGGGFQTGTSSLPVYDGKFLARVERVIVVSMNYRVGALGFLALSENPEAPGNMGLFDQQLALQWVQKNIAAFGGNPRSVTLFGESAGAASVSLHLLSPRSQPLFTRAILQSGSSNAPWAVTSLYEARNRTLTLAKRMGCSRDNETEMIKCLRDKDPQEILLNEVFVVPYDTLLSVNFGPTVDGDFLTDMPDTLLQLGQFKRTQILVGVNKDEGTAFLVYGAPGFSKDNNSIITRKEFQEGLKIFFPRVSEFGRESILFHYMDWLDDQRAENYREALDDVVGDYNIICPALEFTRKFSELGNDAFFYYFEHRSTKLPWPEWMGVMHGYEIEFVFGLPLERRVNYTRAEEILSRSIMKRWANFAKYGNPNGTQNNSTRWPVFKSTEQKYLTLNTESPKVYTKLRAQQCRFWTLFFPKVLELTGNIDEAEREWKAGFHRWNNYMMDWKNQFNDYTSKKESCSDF
Sequence of Acetylcholinesterase (Electrophorus electricus) (O42275 24-633 limits assumed): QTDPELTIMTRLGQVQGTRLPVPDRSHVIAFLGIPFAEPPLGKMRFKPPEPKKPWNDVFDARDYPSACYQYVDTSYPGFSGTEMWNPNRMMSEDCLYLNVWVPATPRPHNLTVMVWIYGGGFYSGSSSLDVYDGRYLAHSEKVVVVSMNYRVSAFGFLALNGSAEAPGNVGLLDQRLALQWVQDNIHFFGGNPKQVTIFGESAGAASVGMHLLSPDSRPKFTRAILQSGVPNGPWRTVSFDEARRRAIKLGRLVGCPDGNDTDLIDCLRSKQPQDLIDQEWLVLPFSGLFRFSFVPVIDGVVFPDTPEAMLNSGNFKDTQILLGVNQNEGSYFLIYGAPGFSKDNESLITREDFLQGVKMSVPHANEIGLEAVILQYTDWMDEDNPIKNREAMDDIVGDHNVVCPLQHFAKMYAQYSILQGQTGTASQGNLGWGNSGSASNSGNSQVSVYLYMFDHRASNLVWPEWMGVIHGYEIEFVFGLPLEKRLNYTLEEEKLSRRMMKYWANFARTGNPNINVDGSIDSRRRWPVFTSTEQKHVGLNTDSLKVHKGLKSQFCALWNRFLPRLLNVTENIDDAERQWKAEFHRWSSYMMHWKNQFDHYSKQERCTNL
Sequence of Cholinesterase (Homo sapiens, UniProt P06276) (P06276 whole entry): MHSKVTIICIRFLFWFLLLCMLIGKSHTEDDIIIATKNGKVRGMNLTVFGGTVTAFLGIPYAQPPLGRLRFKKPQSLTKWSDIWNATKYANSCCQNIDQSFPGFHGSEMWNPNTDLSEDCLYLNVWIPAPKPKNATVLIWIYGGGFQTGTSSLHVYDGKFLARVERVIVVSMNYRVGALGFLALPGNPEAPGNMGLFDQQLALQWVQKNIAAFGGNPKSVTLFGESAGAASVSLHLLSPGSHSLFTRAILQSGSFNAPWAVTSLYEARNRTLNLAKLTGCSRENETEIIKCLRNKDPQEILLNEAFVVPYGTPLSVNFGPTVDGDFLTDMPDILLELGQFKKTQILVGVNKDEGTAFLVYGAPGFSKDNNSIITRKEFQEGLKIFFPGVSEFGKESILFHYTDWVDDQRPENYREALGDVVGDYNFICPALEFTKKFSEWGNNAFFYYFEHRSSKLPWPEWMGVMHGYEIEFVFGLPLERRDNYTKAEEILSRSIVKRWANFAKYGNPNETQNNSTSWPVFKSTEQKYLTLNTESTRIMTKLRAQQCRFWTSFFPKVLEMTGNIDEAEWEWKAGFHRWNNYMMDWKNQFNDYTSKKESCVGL
Sequence of Acetylcholinesterase (Homo sapiens, UniProt P22303) (P22303 whole entry): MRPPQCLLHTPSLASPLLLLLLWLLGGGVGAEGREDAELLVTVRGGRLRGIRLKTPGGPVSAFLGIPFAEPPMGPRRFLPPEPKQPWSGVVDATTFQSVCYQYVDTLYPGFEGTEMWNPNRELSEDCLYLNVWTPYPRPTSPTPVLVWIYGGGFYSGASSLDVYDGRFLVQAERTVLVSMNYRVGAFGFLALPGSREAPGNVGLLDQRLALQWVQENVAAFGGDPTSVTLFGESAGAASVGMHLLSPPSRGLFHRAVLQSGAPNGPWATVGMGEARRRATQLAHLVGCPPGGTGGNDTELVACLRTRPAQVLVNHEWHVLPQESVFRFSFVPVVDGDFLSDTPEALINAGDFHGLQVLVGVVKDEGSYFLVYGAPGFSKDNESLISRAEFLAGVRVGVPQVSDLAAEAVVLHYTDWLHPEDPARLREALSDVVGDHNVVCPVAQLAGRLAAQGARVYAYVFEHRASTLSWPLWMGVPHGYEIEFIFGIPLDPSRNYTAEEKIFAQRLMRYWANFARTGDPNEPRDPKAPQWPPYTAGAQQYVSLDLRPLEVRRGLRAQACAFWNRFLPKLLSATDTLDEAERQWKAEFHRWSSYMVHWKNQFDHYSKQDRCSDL
Sequence of Amyloid-beta precursor protein (Homo sapiens) (P05067 whole entry): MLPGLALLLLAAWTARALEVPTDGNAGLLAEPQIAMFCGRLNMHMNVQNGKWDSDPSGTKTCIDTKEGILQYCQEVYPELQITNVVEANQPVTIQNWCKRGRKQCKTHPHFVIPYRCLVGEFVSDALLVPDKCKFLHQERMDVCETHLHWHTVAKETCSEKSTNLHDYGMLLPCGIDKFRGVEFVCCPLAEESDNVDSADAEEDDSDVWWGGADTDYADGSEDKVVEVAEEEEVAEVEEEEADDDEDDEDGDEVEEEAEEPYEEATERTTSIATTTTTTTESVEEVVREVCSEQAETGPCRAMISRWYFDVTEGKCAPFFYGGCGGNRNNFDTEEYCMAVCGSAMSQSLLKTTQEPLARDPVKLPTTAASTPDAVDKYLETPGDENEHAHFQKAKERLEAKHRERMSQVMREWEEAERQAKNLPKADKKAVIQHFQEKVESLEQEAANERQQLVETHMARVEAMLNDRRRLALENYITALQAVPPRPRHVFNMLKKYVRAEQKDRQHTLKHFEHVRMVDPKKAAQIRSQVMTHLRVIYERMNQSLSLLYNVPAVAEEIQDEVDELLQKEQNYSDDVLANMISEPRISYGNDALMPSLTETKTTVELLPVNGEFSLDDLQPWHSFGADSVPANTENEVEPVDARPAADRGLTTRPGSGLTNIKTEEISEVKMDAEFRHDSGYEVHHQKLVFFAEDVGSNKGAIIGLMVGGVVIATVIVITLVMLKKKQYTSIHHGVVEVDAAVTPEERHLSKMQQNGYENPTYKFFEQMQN
Sequence of Cholinesterase (Equus caballus) (P81908 whole entry): as the sequence (P81908 whole entry) above

## CCN(Cc1ccccc1)Cc1ccc(NC(=O)Cc2ccc(OC)c(OC)c2)cc1
[1]
  Activity: 0.48 equiv
[2]
  IC50: 3.3 µM
[3]
  IC50: 1.21 µM
[4]
  inhibition: 40.6%
[5]
  Ratio IC50: 2.13
[6]
  IC50: 3.22 µM
[7]
  IC50: 1.55 µM

## COc1ccc(CC(=O)Nc2ccc(CN(C)Cc3ccccc3)cc2)cc1OC
[1]
  Activity: 0.5 equiv
[2]
  IC50: 1.48 µM
[3]
  IC50: 1.05 µM
[4]
  inhibition: 38.5%
[5]
  Ratio IC50: 1.4
[6]
  IC50: 1.85 µM
[7]
  IC50: 1.06 µM

## CCN(Cc1ccccc1)Cc1ccc(NC(=O)Cc2ccc(O)c(O)c2)cc1
[1]
  Activity: 3.25 equiv
[2]
  IC50: 5.95 µM
[3]
  IC50: 2.4 µM
[8]
  Activity: Non-Toxic
[9]
  Papp at 16 h, 50 ug/mL: 4.41 ×10⁻⁶ cm/s
[4]
  inhibition: 42.1%
[5]
  Ratio IC50: 1.54
[6]
  IC50: 7.26 µM
[10]
  Activity: Active
[7]
  IC50: 3.63 µM

## CN(Cc1ccccc1)Cc1ccc(NC(=O)Cc2ccc(O)c(O)c2)cc1
[1]
  Activity: 3.26 equiv
[2]
  IC50: 2.28 µM
[3]
  IC50: 0.95 µM
[8]
  Activity: Non-Toxic
[9]
  Papp at 16 h, 50 ug/mL: 3.9 ×10⁻⁶ cm/s
[4]
  inhibition: 40.5%
[5]
  Ratio IC50: 1.36
[6]
  IC50: 4.63 µM
[10]
  Activity: Active
[7]
  IC50: 1.68 µM

## CN(Cc1ccccc1)Cc1ccc(NC(=O)/C=C/c2ccccc2)cc1
[1]
  Activity: 1.1 equiv
[2]
  IC50: 8.21 µM
[4]
  inhibition: 56.8%
[5]
  Ratio IC50: 1.55
[7]
  IC50: 5.27 µM

## CN(Cc1ccccc1)Cc1ccc(NC(=O)c2ccccc2)cc1
[1]
  Activity: 0.36 equiv
[2]
  IC50: 5.3 µM
[4]
  inhibition: 35.2%
[11]
  inhibition: 38%

## CN(Cc1ccccc1)Cc1ccc(NC(=O)Cc2ccc(O)cc2)cc1
[1]
  Activity: 1.38 equiv
[2]
  IC50: 3.48 µM
[3]
  IC50: 4.32 µM
[4]
  inhibition: 38.5%
[5]
  Ratio IC50: 2.12
[6]
  IC50: 3.24 µM
[7]
  IC50: 2.26 µM

## CN(Cc1ccccc1)Cc1ccc(NC(=O)/C=C/c2ccc(O)cc2)cc1
[1]
  Activity: 2.13 equiv
[2]
  IC50: 9.5 µM
[4]
  inhibition: 56.6%
[5]
  Ratio IC50: 1.95
[7]
  IC50: 4.85 µM

## CN(Cc1ccccc1)Cc1ccc(NC(=O)/C=C/c2ccc(Cl)cc2)cc1
[1]
  Activity: 0.82 equiv
[4]
  inhibition: 58.6%
[11]
  inhibition: 41%
[12]
  inhibition: 32%

## NCCc1ccc(O)c(O)c1 [DOPAMINE]
[9]
  Papp at 16 h, 50 ug/mL: 0.45 ×10⁻⁶ cm/s

## CCN(Cc1ccccc1)Cc1ccc(NC(=O)Cc2ccc(OC)c(O)c2)cc1
[1]
  Activity: 1.48 equiv
[2]
  IC50: 3.29 µM
[3]
  IC50: 1.46 µM
[4]
  inhibition: 43.5%
[5]
  Ratio IC50: 1.76
[6]
  IC50: 2.76 µM
[7]
  IC50: 1.89 µM

## CCN(Cc1ccccc1)Cc1ccc(NC(=O)Cc2ccccc2)cc1
[1]
  Activity: 0.26 equiv
[2]
  IC50: 13.9 µM
[4]
  inhibition: 38.1%
[5]
  Ratio IC50: 1.5
[7]
  IC50: 6.63 µM

## CN1C(C(=O)Nc2ccccn2)=C(O)c2ccccc2S1(=O)=O [PIROXICAM]
[9]
  Papp at 16 h, 50 ug/mL: 3.29 ×10⁻⁶ cm/s

## COc1cc2cc(-c3ccc(CN(C)Cc4ccccc4)cc3)c(=O)oc2cc1OC
[2]
  IC50: 12.4 µM
[5]
  Ratio IC50: 315
[7]
  IC50: 0.04 µM

## Clc1cccc(Cl)c1N=C1NCCN1 [CLONIDINE]
[9]
  Papp at 16 h, 50 ug/mL: 3.1 ×10⁻⁶ cm/s

## COc1ccc(/C=C/C(=O)Nc2ccc(CN(C)Cc3ccccc3)cc2)cc1OC
[1]
  Activity: 1.28 equiv
[2]
  IC50: 3.72 µM
[3]
  IC50: 1.56 µM
[9]
  Papp at 16 h, 50 ug/mL: 7.56 ×10⁻⁶ cm/s
[4]
  inhibition: 56.6%
[5]
  Ratio IC50: 1.9
[6]
  IC50: 2.96 µM
[7]
  IC50: 1.94 µM

## COc1ccc(CC(=O)Nc2ccc(CN(C)Cc3ccccc3)cc2)cc1O
[1]
  Activity: 1.5 equiv
[2]
  IC50: 2.4 µM
[3]
  IC50: 1.29 µM
[8]
  Activity: Non-Toxic
[9]
  Papp at 16 h, 50 ug/mL: 4.37 ×10⁻⁶ cm/s
[4]
  inhibition: 42.5%
[5]
  Ratio IC50: 2.29
[6]
  IC50: 3.04 µM
[10]
  Activity: Active
[7]
  IC50: 1.05 µM

## COc1cc(/C=C/C(=O)Nc2ccc(CN(C)Cc3ccccc3)cc2)ccc1O
[1]
  Activity: 2.86 equiv
[2]
  IC50: 8.78 µM
[3]
  IC50: 5.12 µM
[8]
  Activity: Non-Toxic
[9]
  Papp at 16 h, 50 ug/mL: 6.21 ×10⁻⁶ cm/s
[4]
  inhibition: 56.8%
[5]
  Ratio IC50: 2.2
[6]
  IC50: 8.32 µM
[10]
  Activity: Active
[7]
  IC50: 3.99 µM

## CCN(Cc1ccccc1)Cc1ccc(NC(=O)c2ccccc2)cc1
[1]
  Activity: 0.32 equiv
[2]
  IC50: 13.9 µM
[4]
  inhibition: 37.1%
[11]
  inhibition: 33%

## CCN(CC)CCCC(C)Nc1ccnc2cc(Cl)ccc12 (configuration not stated)
[13]
  inhibition: 48.8%

## Cc1c(C)c2c(c(C)c1O)CCC(C)(C(=O)O)O2 (configuration not stated)
[14]
  Activity: Active

## COc1cc(/C=C/C(=O)O)ccc1O
[1]
  Activity: 2.56 equiv

## COc1ccc(/C=C/C(=O)Nc2ccc(CN(C)Cc3ccccc3)cc2)cc1
[1]
  Activity: 1.34 equiv
[2]
  IC50: 8.21 µM
[3]
  IC50: 6.4 µM
[4]
  inhibition: 57.8%
[5]
  Ratio IC50: 2.2
[6]
  IC50: 4.56 µM
[7]
  IC50: 3.72 µM

## CN(Cc1ccccc1)Cc1ccc(NC(=O)/C=C/c2ccc([N+](=O)[O-])cc2)cc1
[1]
  Activity: 0.8 equiv
[4]
  inhibition: 52.8%
[11]
  inhibition: 35%
[12]
  inhibition: 24%

## CN(Cc1ccccc1)Cc1ccc(NC(=O)CCc2ccccc2)cc1
[1]
  Activity: 0.3 equiv
[2]
  IC50: 5.29 µM
[4]
  inhibition: 35.2%
[11]
  inhibition: 45%

## COc1ccc2[nH]cc(CCNC(C)=O)c2c1
[14]
  Activity: Active

## CCN(Cc1ccccc1)Cc1ccc(NC(=O)Cc2ccc(O)cc2)cc1
[1]
  Activity: 1.35 equiv
[2]
  IC50: 4.45 µM
[3]
  IC50: 2.03 µM
[4]
  inhibition: 42.1%
[5]
  Ratio IC50: 1.16
[6]
  IC50: 6.5 µM
[7]
  IC50: 3.82 µM

## CN(Cc1ccccc1)Cc1ccc(NC(=O)Cc2ccccc2)cc1
[1]
  Activity: 0.38 equiv
[2]
  IC50: 5.28 µM
[3]
  IC50: 4.95 µM
[4]
  inhibition: 33.5%
[5]
  Ratio IC50: 1.63
[6]
  IC50: 5.8 µM
[7]
  IC50: 3.24 µM

## CC(=O)[C@H]1CC[C@H]2[C@@H]3CCC4=CC(=O)CC[C@]4(C)[C@H]3CC[C@]12C [PROGESTERONE]
[9]
  Papp at 16 h, 50 ug/mL: 8.62 ×10⁻⁶ cm/s

## CCN(Cc1ccccc1)Cc1ccc(NC(=O)CCc2ccccc2)cc1
[1]
  Activity: 0.32 equiv
[2]
  IC50: 13.9 µM
[4]
  inhibition: 36.1%
[11]
  inhibition: 34%

From ChEMBL document CHEMBL4190315, “Novel cinnamamide-dibenzylamine hybrids: Potent neurogenic agents with antioxidant, cholinergic, and neuroprotective properties as innovative drugs for Alzheimer's disease” (Eur J Med Chem, 2017)
